Article PMC5738580, “Design, Synthesis, and Cytotoxicity Evaluation of Novel Griseofulvin Analogues with Improved Water Solubility” (International Journal of Medicinal Chemistry, 2017)
In brackets after ≈: the same amount, converted by molar mass. Like-named read-outs stand apart in the source and are kept apart here.

Assays:
HCT116 cells [1] = assay: SRB cytotoxicity assay, HCT116; type: cell-based, human; conditions: for IC50: Homo sapiens, HCT-116, read-out: IC50 against HCT116
Method: (§1) Breast carcinoma MCF-7 and colorectal cancer HCT116 cell lines were used in this study. Cancer cell lines were obtained frozen in liquid nitrogen (−180°C) from the American Type Culture Collection (ATCC). The tumor cell line was maintained by serial subculturing in RPMI 1640 media containing 10% […] at the National Cancer Institute, Cairo, Egypt.
(§2) Cytotoxicity assay was carried out according to the reported literature, where the sensitivity of the MCF-7 and HCT116 cell lines to the tested compounds and their combination was determined by the SRB assay. In brief, cells were seeded at a density of 3 × 10^3 cells/well in 96-well microtiter plates. Cells were left to attach for 24 hours before incubation with drugs. Next, they were treated with different concentrations of the tested compounds (10, 20, 30, 40, 50, and 100 μM).
(§3) Control cells containing 200 μl/well of DMSO (0.1% v/v) were used similarly. At the end of incubation, cells were fixed with 20% trichloroacetic acid (TCA), stained with 0.4% Sulforhodamine B (SRB), and rinsed with 1% acetic acid. The bound protein stain was solubilized with Tris base (10 mM, pH 10.5) and the optical density (OD) of each well was measured spectrophotometrically at 570 nm using ELISA microplate reader (TECAN, Sunrise^TM, Germany). The fraction of cell survival was calculated as follows.
(§4) Survival fraction = OD treated/OD control. […] Each experiment was repeated 3 times.

MCF-7 cells [2] = assay: SRB cytotoxicity assay, MCF-7; type: cell-based; conditions: Homo sapiens, MCF7, read-out: IC50 against MCF-7
Method: as §1, §2, §3, §4

centrosomal clustering = tested on: centrosomal clustering; parameters: method as in PMID 22191585, PMID 19402668; conditions: cited from earlier work
[3] = Equilibrium solubility in buffer solutions (UV); type: physicochemical; conditions: thermodynamic from solid, 37 °C, read-out: Mean solubility ± SD
Method: UV measurements were performed on single beam spectrophotometer (Jenway, model 6305, UK). Equilibrium solubility was performed through using digital precise shaking water bath (DAIHAN Scientific Co., model WSB-45, Republic of Korea).
A powdered sample (20 mg), of each of the tested compounds [3, 5–10, and griseofulvin 1], was accurately weighed and dissolved in 100 ml of methanol to prepare 200 μg/ml stock solution. Compound solutions (20 μg/ml) in the investigated media (buffer solutions of pH 1.2 and 6.8) were prepared from stock solution after appropriate dilution. The prepared solutions were scanned in the UV-Vis region (200–800 nm) to determine the wavelength of maximum absorption (λmax) in each medium.
Solutions containing different concentrations of the investigated compound were prepared from stock solution after appropriate dilution with the investigated buffer solutions. The UV absorbance of the prepared sample solutions was measured at λmax of the investigated compound using the investigated buffer solution as a reference solution (blank). The determined absorbance values were plotted versus the corresponding concentrations to construct the standard calibration curves.
Equilibrium solubility of each of the tested compounds was determined by placing an excess amount of the compound in stoppered glass volumetric flask containing 10 ml of the investigated buffer solution. The solutions were shaken at a rate of (40 ± 2) stroke/minute in a thermostatically controlled water bath at 37 ± 0.5°C for 24 hours to ensure equilibrium. Samples of 2 ml were withdrawn from each test solution, filtered immediately, and assayed spectrophotometrically at the determined λmax of the investigated compound.

MCF-7 cells [4] = assay: Apoptosis, Annexin V-FITC/PI flow cytometry; type: cell-based, human; conditions: MCF-7, 21.5 μM, 48 hrs
Method: In order to study the effect of compound 9 on apoptosis, MCF-7 cells were treated with compound 9 (21.5 μM) for 48 hrs and harvested for fluorescence microscopic and flow cytometric analysis of Annexin V-FITC/propidium iodide (PI) staining. […] The percentage of apoptotic cells was 2.65% in control untreated MCF-7 cells and 31.75% after treatment with compound 9.
In brief, untreated and treated MCF-7 cells (21.5 μM of 9) were harvested and resuspended in calcium buffer at a concentration of 1 × 10^6 cells/ml. Annexin V-FITC (10 μl) was added to 100 μl of cells. The tubes were incubated for 20 min in the dark. The cells were then washed with calcium buffer and propidium iodide (10 μl) was added to each tube and incubated for at least 10 min on ice. Samples were analyzed by FACScan flow cytometer (Becton-Dickinson, San Jose, CA, USA) using CellQuest software (Becton-Dickinson, San Jose, CA).

HCT116 cells [5] = assay: Combination of compound 9 with 5-fluorouracil (SRB, combination index); type: cell-based, human
Method: (§5) Estrogen-dependent breast cancer represents 70% of all types of breast cancer. […] Combination therapy is used in order to prevent resistance or recurrence. […] Similar study was performed for evaluation of combination effect of compound 9 with 5-fluorouracil on HCT116 cells proliferation (Figure 1).
as §2
(§6) CI was employed to determine whether the compounds interacted synergistically, additively, or antagonistically. […] If “CI” is less than 1, the effect of combination is synergistic, whereas if CI = 1 or >1, the effect is additive or antagonistic, respectively.

MCF-7 cells [6] = assay: Combination of compound 9 with tamoxifen (SRB, combination index); type: cell-based, human
Method: as §5, §2, §6

[7] = buffer solution pH 1.2, simulated gastric fluid, pH 1.2 buffer solution
[8] = buffer solution pH 6.8, aqueous buffer, pH 6.8 buffer solution

For COc1cc(OC)c2c(c1Cl)O[C@]1(C2=O)C(OCc2ccccc2)=CC(=O)C[C@H]1C [Compound 3, (2S,6′R)-2′-Benzyloxy-7-chloro-4,6-dimethoxy-6′-methyl-3H-spiro[benzofuran-2,1′-cyclohex[2′]en]-3,4′-dione, reference compound], the IC50 (HCT116 cells [1]) is listed as 35.8 µM, the IC50 (MCF-7 cells [2]) is listed as 32.8 µM and the “increase in activity as a centrosome clustering inhibitor compared to 1” value (centrosomal clustering) is listed as 25 fold. For the same compound, the solubility at 24 h [3, 7] was 11.1 ± 0.37 µg/mL (≈ 26 µM) and the solubility at 24 h [3, 8] was 11.1 ± 0.82 µg/mL (≈ 25.9 µM).
Work on COC1=CC(=NNC(=O)c2ccncc2)C[C@@H](C)[C@]12Oc1c(Cl)c(OC)cc(OC)c1C2=O (mixture of isomers) [Compound 8, (E/Z)-N′-((2S,6′R)-7-Chloro-2′,4,6-trimethoxy-6′-methyl-3-oxo-3H-spiro[benzofuran-2,1′-cyclohex[2′]en]-4′-ylidene)isonicotinic Acid Hydrazide] yielded an IC50 (HCT116 cells [1]) of 39.8 µM, an IC50 (MCF-7 cells [2]) of 25.3 µM and a solubility at 24 h [3, 7] of 29.1 ± 0.72 µg/mL. It also gave a solubility at 24 h [3, 8] of 12.5 ± 0.54 µg/mL.
With COc1cc(OC)c2c(c1Cl)OC1(C2=O)C(OCc2ccccc2)=CC(=NNC(N)=O)CC1C [Compound 9, 2-((2S,6′R)-2′-Benzyloxy-7-chloro-4,6-dimethoxy-6′-methyl-3-oxo-3H-spiro[benzofuran-2,1′-cyclohex[2′]en]-4′-ylidene)hydrazine-1-carboxamide] the “percentage of apoptotic cells” value (MCF-7 cells [4]) was 31.75%, the “combination index (CI)” value (HCT116 cells [5]; half of IC50 of compound 9 + quarter of IC50 of 5-fluorouracil) was 0.37 ± 0.07 and the “combination index (CI)” value (HCT116 cells [5]; quarter of IC50 of compound 9 + half of IC50 of 5-fluorouracil) was 0.2 ± 0.06. For the same compound, the “increase in activity over 5-fluorouracil against HCT116” value (HCT116 cells [1]) was 2 fold, the IC50 (HCT116 cells [1]) was 10.5 µM and the IC50 (MCF-7 cells [2]) was 21.5 µM. For the same compound, the “combination index (CI)” value (MCF-7 cells [6]; half of IC50 of compound 9 + quarter of IC50 of tamoxifen) was 0.25 ± 0.03, the “combination index (CI)” value (MCF-7 cells [6]; quarter of IC50 of compound 9 + half of IC50 of tamoxifen) was 0.17 ± 0.06 and the solubility at 24 h [3, 7] was 14 ± 0.31 µg/mL (≈ 28.7 µM). It also gave a solubility at 24 h [3, 8] of 13.78 ± 0.07 µg/mL (≈ 28.4 µM).
Compound COc1cc(OC)c2c(c1Cl)O[C@]1(C2=O)C(OCc2ccccc2)=CC(=NOCC(=O)O)C[C@H]1C (mixture of isomers) [Compound 5, 2-(((E/Z)-[(2S,6′R)2′-Benzyloxy-7-chloro-4,6-dimethoxy-6′-methyl-3-oxo-3H-spiro[benzofuran-2,1′-cyclohex[2′]en]-4′-ylidene]amino)oxy) Acetic Acid] has an IC50 (HCT116 cells [1]) greater than 100 µM, an IC50 (MCF-7 cells [2]) of 20.7 µM and a solubility at 24 h [3, 7] of 14.3 ± 0.42 µg/mL. It also gave a solubility at 24 h [3, 8] of 27.94 ± 0.27 µg/mL.
For COc1cc(OC)c2c(c1Cl)OC1(C2=O)C(OCc2ccccc2)=CC(=NNC(=N)N)CC1C [Compound 10, 2-((2S,6′R)-2′-Benzyloxy-7-chloro-4,6-dimethoxy-6′-methyl-3-oxo-3H-spiro[benzofuran-2,1′-cyclohex[2′]en]-4′-ylidene)hydrazine-1-carboximidamide], the “increase in activity over 5-fluorouracil against HCT116” value (HCT116 cells [1]) was 2 fold, the IC50 (HCT116 cells [1]) was 8.39 µM and the IC50 (MCF-7 cells [2]) was 14.5 µM. The solubility at 24 h [3, 7] was 26.7 ± 0.57 µg/mL (≈ 55 µM) and the solubility at 24 h [3, 8] was 16.6 ± 0.58 µg/mL (≈ 34.2 µM).
In the case of COC1=CC(=O)C[C@@H](C)[C@]12Oc1c(Cl)c(OC)cc(OC)c1C2=O [Compound 1, Griseofulvin], the IC50 (HCT116 cells [1]) is reported as 35.5 µM, the IC50 (MCF-7 cells [2]) is reported as 69 µM and the solubility at 24 h [3, 7] is reported as 12.3 ± 0.29 µg/mL (≈ 34.9 µM). For the same compound, the solubility at 24 h [3, 8] was 12.4 ± 0.26 µg/mL (≈ 35.1 µM).
For COC1=CC(=NNC(=N)N)C[C@@H](C)[C@]12Oc1c(Cl)c(OC)cc(OC)c1C2=O [Compound 7, 2-((2S,6′R)-7-Chloro-2′,4,6-trimethoxy-6′-methyl-3-oxo-3H-spiro[benzo-furan-2,1′-cyclohex[2′]en]-4′-ylidene)hydrazine-1-carboximidamide], the IC50 (HCT116 cells [1]) was 85.6 µM and the IC50 (MCF-7 cells [2]) was 54.5 µM.
With COC1=CC(=NNC(N)=O)C[C@@H](C)[C@]12Oc1c(Cl)c(OC)cc(OC)c1C2=O (mixture of isomers) [Compound 6, (E/Z)-2-((2S,6′R)-7-Chloro-2′,4,6-trimethoxy-6′-methyl-3-oxo-3H-spiro[benzofuran-2,1′-cyclohex[2′]en]-4′-ylidene)hydrazine-1-carboxamide] the IC50 (HCT116 cells [1]) was 87.8 µM, the IC50 (MCF-7 cells [2]) was 55.9 µM and the solubility at 24 h [3, 7] was 14.86 ± 0.12 µg/mL. For the same compound, the solubility at 24 h [3, 8] was 14.5 ± 0.39 µg/mL.
For O=c1[nH]cc(F)c(=O)[nH]1 [5-Fluorouracil, reference compound], the IC50 (HCT116 cells [1]) was 19.5 µM.
